pEC50: −log10 of the molar value.
What follows are compounds tested against recombinant DYRK1A kinase (Homo sapiens (Human), UniProt Q13627) (assay: DYRK1A kinase assay (Ser/Thr 18 peptide Z-lyte FRET assay)). Settings: recombinant DYRK1A 0.25 µg/mL, ATP 15 µM, Ser/Thr peptide 18 4 µM, one hour at room temperature; table head prints EC50, method says IC50.
Assay type: biochemical
Description: Representative compounds were screened using the assay procedure for DYRK1A kinase activity as described below.
Each compound was dissolved in DMSO as a 10 mM stock and used to prepare compound source plates. Serial dilution (1:3, 11-point dose-response curves from 10 µM to 0.00016 µM) and compound transfer was performed using the ECHO 550 (Labcyte, Sunnyvale, CA) into 1536-well black-walled round bottom plates (Corning).
The DYRK1A kinase assay was run using the Ser/Thr 18 peptide Z-lyte assay kit according to manufacturer’s instructions (Life Technologies- a Division of Thermo-Fisher). This is a non-radioactive assay using fluorescence resonance energy transfer (FRET) between coumarin and fluorescein to detect kinase activity which is represented as a ratio of coumarin emission/fluorescein emission.
Briefly, recombinant DYRK1A kinase, ATP and Ser/Thr peptide 18 were prepared in 1X Kinase buffer to final concentrations of 0.25 µg/mL, 15 µM, and 4 µM respectively. The mixture was allowed to incubate with the representative compounds for one hour at room temperature. All reactions were performed in duplicate. Unphosphorylated (“0% Control”) and phosphorylated (“100% control”) forms of Ser/Thr 18 served as control reactions. Additionally, an 11-point dose-response curve of Staurosporine (1uM top) was run to serve as a positive compound control.
After incubation, Development Reagent A was diluted in Development Buffer then added to the reaction and allowed to further incubate for one hour at room temperature. The plate was read at Ex 400 Em 455 to detect the coumarin signal and Ex 400 Em 520 to measure the signal (EnVision Multilabel Plate Reader, PerkinElmer).
The Emission ratio (Em) was calculated as a ratio of the coumarin (C) emission signal (at 445 nm)/Fluorescein (F) emission signal (at 520 nm). The percent phosphorylation was then calculated using the following formula: [1 — ((Em ratio X F100%)—C100%)/ ((C0%—C100%) + (Em ratio X (F100% - F0%)))]. Dose-response curves were generated, and inhibitory concentration (IC50) values were calculated using non-linear regression curve fit in the Dotmatics’ Studies Software (Bishops Stortford, UK).

| SMILES | pEC50 |
| --- | --- |
| C[C@]1(O)CC[C@@H](Nc2ncc3c(-c4cnc5nccn5c4)ccn3n2)CC1 [Compound 258, (1s,4s)-4-((5-(Imidazo [1,2-a]pyrimidin-6-yl)pyrrolo[2,1-f] [1,2,4]triazin-2-yl)amino)-1-methylcyclohexan-1-ol] | 8.00 |
| CO[C@H]1CC[C@H](Nc2ncc3c(-c4cnc5nccn5c4)ccn3n2)CC1 [Compound 260, 5-(Imidazo[1,2-a]pyrimidin-6-yl)-N-(trans-4-methoxycyclohexyl)pyrrolo [2,1-f] [1,2,4]triazin-2-amine] | 8.05 |
| CN1CCC(Nc2ncc3c(-c4cnc5nccn5c4)ccn3n2)CC1 [Compound 279, 5-(Imidazo[1,2-a]pyrimidin-6-yl)-N-(1-methylpiperidin-4-yl)pyrrolo[2,1-f][1,2,4]triazin-2-amine] | 7.31 |
| c1cn2cc(-c3ccn4nc(NC5CCOCC5)ncc34)cnc2n1 [Compound 280, 5-(imidazo[1,2-a]pyrimidin-6-yl)-N-(tetrahydro-2H-pyran-4-yl)pyrrolo[2,1-f][1,2,4]triazin-2-amine] | 7.82 |
| CN1CC2(CC(Nc3ncc4c(-c5cnc6nccn6c5)ccn4n3)C2)C1 [Compound 283, 5-(Imidazo[1,2-a]pyrimidin-6-yl)-N-(2-methyl-2-azaspiro[3.3]heptan-6-yl)pyrrolo[2,1-f][1,2,4]triazin-2-amine] | 7.70 |
| CC(C)(F)CNc1ncc2c(-c3cnc4ncc(Cl)n4c3)ccn2n1 [Compound 287, 5-(3-Chloroimidazo[1,2-a]pyrimidin-6-yl)-N-(2-fluoro-2-methylpropyl) pyrrolo[2,1-f] [1,2,4]triazin-2-amine] | 6.77 |
| Cc1cnc2ncc(-c3ccn4nc(NCC(C)(C)F)ncc34)cn12 [Compound 358, N-(2-Fluoro-2-methylpropyl)-5-(3-methylimidazo[1,2-a]pyrimidin-6-yl) pyrrolo[2,1-f] [1,2,4]triazin-2-amine] | 7.60 |
| Cc1cnc2ncc(-c3ccn4nc(NC5CCC(F)(F)CC5)ncc34)cn12 [Compound 398, N-(4,4-Difluorocyclohexyl)-5-(3-methylimidazo[1,2-a]pyrimidin-6-yl) pyrrolo[2,1-f] [1,2,4]triazin-2-amine] | 7.92 |
| CCc1cnc2ncc(-c3ccn4nc(NCC(C)(C)F)ncc34)cn12 [Compound 429, 5-(3-Ethylimidazo[1,2-a]pyrimidin-6-yl)-N-(2-fluoro-2-methylpropyl) pyrrolo[2,1-f] [1,2,4]triazin-2-amine] | 6.18 |
| Cc1nc2c(F)cc(-c3ccn4nc(NCC(C)(C)F)ncc34)cc2n1C(C)C [Compound 500] | 7.36 |
| COCCO[C@H]1CC[C@H](Nc2ncc3c(-c4cnc5nc(C)n(CC(F)F)c5c4)ccn3n2)CC1 [Compound 692, 5-(1-(2,2-Difluoroethyl)-2-methyl-1H-imidazo[4,5-b]pyridin-6-yl)-N-(trans-4-(2-methoxyethoxy)cyclohexyl)pyrrolo[2,1-f][1,2,4]triazin-2-amine] | 7.55 |
| Cc1nc2ncc(-c3ccn4nc(NCC(C)(C)F)ncc34)cc2n1C1CC(F)(F)C1 [Compound 713, 5-(1-(3,3-Difluorocyclobutyl)-2-methyl-1H-imidazo[4,5-b]pyridin-6-yl)-N-(2-fluoro-2-methylpropyl)pyrrolo[2,1-f][1,2,4]triazin-2-amine] | 7.96 |
| Cc1nc2ccc(-c3ccn4nc(NCC(C)(C)F)ncc34)nc2n1C [Compound 855, 5-(2,3-Dimethyl-3H-imidazo[4,5-b]pyridin-5-yl)-N-(2-fluoro-2-methylpropyl)pyrrolo[2,1-f][1,2,4]triazin-2-amine] | 7.37 |
| CCn1c(C)nc2ccc(-c3ccn4nc(NCC(C)(C)F)ncc34)nc21 [Compound 926, 5-(3-Ethyl-2-methyl-3H-imidazo[4,5-b]pyridin-5-yl)-N-(2-fluoro-2-methylpropyl)pyrrolo[2,1-f][1,2,4]triazin-2-amine] | 7.57 |
| CO[C@H]1C[C@@H](Nc2ncc3c(-c4ccc5nc(C)n(CC(F)F)c5n4)ccn3n2)C1 [Compound 1091, 5-(3-(2,2-Difluoroethyl)-2-methyl-3H-imidazo[4,5-b]pyridin-5-yl)-N-(cis-3-methoxycyclobutyl)pyrrolo[2,1-f][1,2,4]triazin-2-amine] | 5.48 |
| Cc1nc2ccc(-c3ccn4nc(N[C@H]5CC[C@@H](O)CC5)ncc34)nc2n1CC(F)F [Compound 1109, cis-4-((5-(3-(2,2-Difluoroethyl)-2-methyl-3H-imidazo[4,5-b]pyridin-5-yl)pyrrolo[2,1-f][1,2,4]triazin-2-yl)amino)cyclohexan-1-ol] | 8.22 |

More lines, in order of rising pEC50, values ahead:

| pEC50 | SMILES |
| --- | --- |
| 8.22 | CCO[C@H]1CC[C@@H](Nc2ncc3c(-c4cnc5nccn5c4)ccn3n2)CC1 [Compound 263, N-(cis-4-Ethoxycyclohexyl)-5-(imidazo[1,2-a]pyrimidin-6-yl)pyrrolo[2,1-f][1,2,4]triazin-2-amine] |
| 8.22 | COCCO[C@H]1CC[C@@H](Nc2ncc3c(-c4cnc5nccn5c4)ccn3n2)CC1 [Compound 265, 5-(Imidazo[1,2-a]pyrimidin-6-yl)-N-(cis-4-(2-methoxyethoxy)cyclohexyl) pyrrolo[2,1-f] [1,2,4]triazin-2-amine] |
| 8.22 | Cc1nc2ncc(-c3ccn4nc(N[C@H]5CC[C@@H](O)CC5)ncc34)cc2n1CC(F)F [Compound 683, cis-4-((5-(1-(2,2-Difluoroethyl)-2-methyl-1H-imidazo[4,5-b]pyridin-6-yl)pyrrolo[2,1-f][1,2,4]triazin-2-yl)amino)cyclohexan-1-ol] |
| 8.30 | COCCO[C@H]1C[C@@H](Nc2ncc3c(-c4cnc5nccn5c4)ccn3n2)C1 [Compound 244, 5-(Imidazo[1,2-a]pyrimidin-6-yl)-N-(cis-3-(2-methoxyethoxy)cyclobutyl) pyrrolo[2,1-f] [1,2,4]triazin-2-amine] |
| 8.30 | CO[C@H]1CC[C@H](Nc2ncc3c(-c4cnc5nc(C)n(CC(F)F)c5c4)ccn3n2)CC1 [Compound 686, 5-(1-(2,2-Difluoroethyl)-2-methyl-1H-imidazo[4,5-b]pyridin-6-yl)-N-(trans-4-methoxycyclohexyl)pyrrolo[2,1-f][1,2,4]triazin-2-amine] |
| 8.30 | Cc1nc2ncc(-c3ccn4nc(NC5CCOCC5)ncc34)cc2n1CC(F)F [Compound 706, 5-(1-(2,2-Difluoroethyl)-2-methyl-1H-imidazo[4,5-b]pyridin-6-yl)-N-(tetrahydro-2H-pyran-4-yl)pyrrolo[2,1-f][1,2,4]triazin-2-amine] |
| 8.40 | Cc1nc2ncc(-c3ccn4nc(NCC(C)(C)F)ncc34)cc2n1CC(F)F [Compound 642, 5-(1-(2,2-difluoroethyl)-2-methyl-1H-imidazo[4,5-b]pyridin-6-yl)-N-(2-fluoro-2-methylpropyl)pyrrolo[2,1-f][1,2,4]triazin-2-amine] |
| 8.40 | Cc1nc2ncc(-c3ccn4nc(NC5CCC(F)(F)CC5)ncc34)cc2n1CC(F)F [Compound 682, N-(4,4-Difluorocyclohexyl)-5-(1-(2,2-difluoroethyl)-2-methyl-1H-imidazo[4,5-b]pyridin-6-yl)pyrrolo[2,1-f] [1,2,4]triazin-2-amine] |
| 8.40 | Cc1nc2ncc(-c3ccn4nc(N[C@H]5CC[C@@](C)(O)CC5)ncc34)cc2n1CC(F)F [Compound 684, cis-4-((5-(1-(2,2-Difluoroethyl)-2-methyl-1H-imidazo[4,5-b]pyridin-6-yl)pyrrolo[2,1-f][1,2,4]triazin-2-yl)amino)-1-methylcyclohexan-1-ol] |
| 8.40 | Cc1nc2ccc(-c3ccn4nc(NC5CC(F)(F)C5)ncc34)nc2n1CC(F)F [Compound 1088, N-(3,3-Difluorocyclobutyl)-5-(3-(2,2-difluoroethyl)-2-methyl-3H-imidazo [4,5-b]pyridin-5-yl)pyrrolo[2,1-f][1,2,4]triazin-2-amine] |
| 8.52 | CO[C@H]1CC[C@@H](Nc2ncc3c(-c4cnc5nc(C)n(CC(F)F)c5c4)ccn3n2)CC1 [Compound 685, 5-(1-(2,2-Difluoroethyl)-2-methyl-1H-imidazo[4,5-b]pyridin-6-yl)-N-(cis-4-methoxycyclohexyl)pyrrolo[2,1-f] [1,2,4]triazin-2-amine] |
| 8.52 | COCCO[C@H]1CC[C@@H](Nc2ncc3c(-c4cnc5nc(C)n(CC(F)F)c5c4)ccn3n2)CC1 [Compound 691, 5-(1-(2,2-Difluoroethyl)-2-methyl-1H-imidazo[4,5-b]pyridin-6-yl)-N-(cis-4-(2-methoxyethoxy)cyclohexyl)pyrrolo[2,1-f][1,2,4]triazin-2-amine] |
| 8.70 | Cc1nc2ncc(-c3ccn4nc(N[C@H]5CC[C@@H](OC(F)F)CC5)ncc34)cc2n1CC(F)F [Compound 687] |
